Measured values reported in patent US11078216B2, “Bisaryl amides as NRF2 activators” (GLAXOSMITHKLINE INTELLECTUAL PROPERTY DEVELOPMENT LIMITED, priority 2016, dated 2021).

System: NRF2 (NQO1 activity as marker for NRF2 activation), BEAS-2B cells
Test: BEAS-2B NQO1 MTT Assay
Format: cell-based
Conditions: Homo sapiens, EC50 of NQO1 specific activity induction, 48 hours incubation, read-out: EC50
Procedure, shortened: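 BEAS-2B cells were exposed to compound for 48 h at 37° C, 5% CO2, then lysed. NQO1 activity was measured kinetically by MTT reduction at 570 nm over 30 minutes; EC50 came from 3-parameter fit of Delta OD/min versus log concentration.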

With CC[C@@H]1CN(Cc2cc([C@H](CC(=O)N(C)c3cccnc3)c3ccc4c(nnn4CC)c3C)ccc2C)S(=O)(=O)c2cccnc2O1 [Example 169, (S)-3-(3-(((R)-4-ethyl-1,1-dioxido-3,4-dihydro-2H-pyrido[2,3-b][1,4,5]oxathiazepin-2-yl)methyl)-4-methylphenyl)-3-(1-ethyl-4-methyl-1H-benzo[d][1,2,3]triazol-5-yl)-N-methyl-N-(pyridin-3-yl)propanamide] the EC50 was 100 to 1000 nM.

With CC[C@@H]1CN(Cc2cc([C@H](CC(=O)Nc3ccccc3)c3ccc4c(nnn4CC)c3C)ccc2C)S(=O)(=O)c2cccnc2O1 [Example 170, (S)-3-(3-(((R)-4-ethyl-1,1-dioxido-3,4-dihydro-2H-pyrido[2,3-b][1,4,5]oxathiazepin-2-yl)methyl)-4-methylphenyl)-3-(1-ethyl-4-methyl-1H-benzo[d][1,2,3]triazol-5-yl)-N-phenylpropanamide] the EC50 was 100 to 1000 nM.

CC[C@@H]1CN(Cc2cc([C@H](CC(=O)NC3CCCC3)c3ccc4c(nnn4CC)c3C)ccc2C)S(=O)(=O)c2cccnc2O1 [Example 171, (S)-N-cyclopentyl-3-(3-(((R)-4-ethyl-1,1-dioxido-3,4-dihydro-2H-pyrido[2,3-b][1,4,5]oxathiazepin-2-yl)methyl)-4-methylphenyl)-3-(1-ethyl-4-methyl-1H-benzo[d][1,2,3]triazol-5-yl)propanamide] was tested, and the EC50 was 100 to 1000 nM.

CC[C@@H]1CN(Cc2cc([C@H](CC(=O)Nc3ccc(OC)nc3)c3ccc4c(nnn4CC)c3C)ccc2C)S(=O)(=O)c2cccnc2O1 [Example 172, (S)-3-(3-(((R)-4-ethyl-1,1-dioxido-3,4-dihydro-2H-pyrido[2,3-b][1,4,5]oxathiazepin-2-yl)methyl)-4-methylphenyl)-3-(1-ethyl-4-methyl-1H-benzo[d][1,2,3]triazol-5-yl)-N-(6-methoxypyridin-3-yl)propanamide] showed an EC50 of 100 to 1000 nM.

For Cc1ccc([C@@H](c2ccc3c(nnn3C)c2C)C(C)(C)C(=O)Nc2cccnc2)cc1Cn1ccnc1CC1CCCCCC1 [Example 173, (S)-3-(3-((2-(cycloheptylmethyl)-1H-imidazol-1-yl)methyl)-4-methylphenyl)-3-(1,4-dimethyl-1H-benzo[d][1,2,3]triazol-5-yl)-2,2-dimethyl-N-(pyridin-3-yl)propanamide], the EC50 was 10 to 100 nM.

Compound CCn1nnc2c(C)c([C@@H](CC(=O)Nc3cccnc3)c3ccc(C)c(CN4C[C@@H](C)Cc5ccc(C(F)(F)F)cc5S4(=O)=O)c3)ccc21 [Example 174, (S)-3-(1-ethyl-4-methyl-1H-benzo[d][1,2,3]triazol-5-yl)-3-(4-methyl-3-(((S)-4-methyl-1,1-dioxido-8-(trifluoromethyl)-4,5-dihydrobenzo[f][1,2]thiazepin-2(3H)-yl)methyl)phenyl)-N-(pyridin-3-yl)propanamide] has an EC50 of 10 to 100 nM.

Work on CCC1CCN(Cc2nccn2Cc2cc([C@@H](c3ccc4c(nnn4C)c3C)C(C)(C)C(=O)Nc3cccnc3)ccc2Cl)CC1 [Example 175, (S)-3-(4-chloro-3-((2-((4-ethylpiperidin-1-yl)methyl)-1H-imidazol-1-yl)methyl)phenyl)-3-(1,4-dimethyl-1H-benzo[d][1,2,3]triazol-5-yl)-2,2-dimethyl-N-(pyridin-3-yl)propanamide] yielded an EC50 of 100 to 1000 nM.

For CC[C@@H]1CN(Cc2cc([C@@H](c3ccc4c(nnn4CC)c3C)[C@@H](C)C(=O)Nc3cccnc3)ccc2C)S(=O)(=O)c2cccnc2O1 [Example 176], the EC50 was 1 to 10 nM.

With CCn1nnc2c(C)c([C@H](c3ccc(C)c(CN4C[C@@H](C)Cc5cc(C(F)(F)F)ccc5S4(=O)=O)c3)[C@@H](C)C(=O)Nc3cccnc3)ccc21 [Example 177, (2R,3S)-3-(1-ethyl-4-methyl-1H-benzo[d][1,2,3]triazol-5-yl)-2-methyl-3-(4-methyl-3-(((S)-4-methyl-1,1-dioxido-7-(trifluoromethyl)-4,5-dihydrobenzo[f][1,2]thiazepin-2(3H)-yl)methyl)phenyl)-N-(pyridin-3-yl)propanamide] the EC50 was 1 to 10 nM.

Work on CCn1nnc2c(C)c([C@@H](CC(=O)Nc3cccnc3)c3ccc(C)c(CN4C[C@@H](C)Cc5ccc(F)cc5S4(=O)=O)c3)ccc21 [Example 178, (S)-3-(1-ethyl-4-methyl-1H-benzo[d][1,2,3]triazol-5-yl)-3-(3-(((S)-8-fluoro-4-methyl-1,1-dioxido-4,5-dihydrobenzo[f][1,2]thiazepin-2(3H)-yl)methyl)-4-methylphenyl)-N-(pyridin-3-yl)propanamide] yielded an EC50 of 10 to 100 nM.

CCn1nnc2c(C)c([C@H](c3ccc(C)c(CN4C[C@@H](C)Cc5ccc(C(F)(F)F)cc5S4(=O)=O)c3)[C@@H](C)C(=O)Nc3cccnc3)ccc21 [Example 179, (2R,3S)-3-(1-ethyl-4-methyl-1H-benzo[d][1,2,3]triazol-5-yl)-2-methyl-3-(4-methyl-3-(((S)-4-methyl-1,1-dioxido-8-(trifluoromethyl)-4,5-dihydrobenzo[f][1,2]thiazepin-2(3H)-yl)methyl)phenyl)-N-(pyridin-3-yl)propanamide] gave an EC50 of 1 to 10 nM.

Work on CC[C@H]1Cc2ccc(C(F)(F)F)cc2S(=O)(=O)N(Cc2cc([C@@H](c3ccc4c(nnn4CC)c3C)[C@@H](C)C(=O)Nc3cccnc3)ccc2C)C1 [Example 180, (2R,3S)-3-(3-(((S)-4-ethyl-1,1-dioxido-8-(trifluoromethyl)-4,5-dihydrobenzo[f][1,2]thiazepin-2(3H)-yl)methyl)-4-methylphenyl)-3-(1-ethyl-4-methyl-1H-benzo[d][1,2,3]triazol-5-yl)-2-methyl-N-(pyridin-3-yl)propanamide] yielded an EC50 of 1 to 10 nM.

For CCn1nnc2c(C)c([C@@H](CC(=O)Nc3cccnc3)c3ccc(C)c(CN4C[C@@H](C)Cc5ccc(C(F)(F)F)cc5S4(=O)=O)c3)cc(OC)c21 [Example 181, (S)-3-(1-ethyl-7-methoxy-4-methyl-1H-benzo[d][1,2,3]triazol-5-yl)-3-(4-methyl-3-(((S)-4-methyl-1,1-dioxido-8-(trifluoromethyl)-4,5-dihydrobenzo[f][1,2]thiazepin-2(3H)-yl)methyl)phenyl)-N-(pyridin-3-yl)propanamide], the EC50 was 10 to 100 nM.

Work on CC[C@@H]1CN(Cc2cc([C@@H](c3ccc4c(nnn4CC)c3C)[C@@H](C)C(N)=O)ccc2C)Cc2ncccc2O1 [Example 182, (2R,3S)-3-(3-(((R)-2-ethyl-2,3-dihydropyrido[2,3-f][1,4]oxazepin-4(5H)-yl)methyl)-4-methylphenyl)-3-(1-ethyl-4-methyl-1H-benzo[d][1,2,3]triazol-5-yl)-2-methylpropanamide] yielded an EC50 of 100 to 1000 nM.

CC[C@H]1Cc2cccc(C(F)(F)F)c2CN(Cc2cc([C@@H](c3ccc4c(nnn4CC)c3C)C(C)(C)C(N)=O)ccc2C)C1 [Example 183, (S)-3-(1-ethyl-4-methyl-1H-benzo[d][1,2,3]triazol-5-yl)-3-(3-(((S)-4-ethyl-9-(trifluoromethyl)-4,5-dihydro-1H-benzo[c]azepin-2(3H)-yl)methyl)-4-methylphenyl)-2,2-dimethylpropanamide] showed an EC50 of 100 to 1000 nM.

Compound CC[C@@H]1CN(Cc2cc([C@@H](c3ccc4c(nnn4CC)c3C)C(C)(C)C(N)=O)ccc2C)Cc2ncccc2O1 [Example 184, (S)-3-(3-(((R)-2-ethyl-2,3-dihydropyrido[2,3-f][1,4]oxazepin-4(5H)-yl)methyl)-4-methylphenyl)-3-(1-ethyl-4-methyl-1H-benzo[d][1,2,3]triazol-5-yl)-2,2-dimethylpropanamide] has an EC50 of 100 to 1000 nM.

Work on CC[C@@H]1CN(Cc2cc([C@@H](CCc3cn(C4CCC4)nn3)C(C)(C)C(N)=O)ccc2Cl)S(=O)(=O)c2ccccc2O1 [Example 185, (R)-3-(4-chloro-3-(((R)-4-ethyl-1,1-dioxido-3,4-dihydro-2H-benzo[b][1,4,5]oxathiazepin-2-yl)methyl)phenyl)-5-(1-cyclobutyl-1H-1,2,3-triazol-4-yl)-2,2-dimethylpentanamide] yielded an EC50 of 100 to 1000 nM.

In the case of CC[C@@H]1CN(Cc2cc([C@@H](c3ccc4c(nnn4CC)c3C)C(C)(C)C(=O)Nc3cnc(CO[Si](C)(C)C(C)(C)C)nc3)ccc2C)S(=O)(=O)c2ccccc2O1 [Example 186, (S)—N-(2-(((tert-Butyldimethylsilyl)oxy)methyl)pyrimidin-5-yl)-3-(3-(((R)-4-ethyl-1,1-dioxido-3,4-dihydro-2H-benzo[b][1,4,5]oxathiazepin-2-yl)methyl)-4-methylphenyl)-3-(1-ethyl-4-methyl-1H-benzo[d][1,2,3]triazol-5-yl)-2,2-dimethylpropanamide], the EC50 is reported as 100 to 1000 nM.

Compound CC[C@@H]1CN(Cc2cc([C@@H](c3ccc4c(nnn4CC)c3C)C(C)(C)C(=O)Nc3cnc(C(C)(C)O[Si](C)(C)C(C)(C)C)nc3)ccc2C)S(=O)(=O)c2ccccc2O1 [Example 187, (S)-N-(2-(2-((tert-Butyldimethylsilyl)oxy)propan-2-yl)pyrimidin-5-yl)-3-(3-(((R)-4-ethyl-1,1-dioxido-3,4-dihydro-2H-benzo[b][1,4,5]oxathiazepin-2-yl)methyl)-4-methylphenyl)-3-(1-ethyl-4-methyl-1H-benzo[d][1,2,3]triazol-5-yl)-2,2-dimethylpropanamide] has an EC50 of 1000 to 10000 nM.

For CC[C@@H]1CN(Cc2cc([C@@H](c3ccc4c(nnn4CC)c3C)C(C)(C)C(=O)Nc3cnc(CNC(=O)OC(C)(C)C)nc3)ccc2C)S(=O)(=O)c2ccccc2O1 [Example 188, tert-Butyl ((5-((S)-3-(3-(((R)-4-ethyl-1,1-dioxido-3,4-dihydro-2H-benzo[b][1,4,5]oxathiazepin-2-yl)methyl)-4-methylphenyl)-3-(1-ethyl-4-methyl-1H-benzo[d][1,2,3]triazol-5-yl)-2,2-dimethylpropanamido)pyrimidin-2-yl)methyl)carbamate], the EC50 was 10 to 100 nM.

With CC[C@@H]1CN(Cc2cc([C@@H](c3ccc4c(nnn4CC)c3C)C(C)(C)C(=O)Nc3cnc(C(=O)N(C)C)nc3)ccc2C)S(=O)(=O)c2ccccc2O1 [Example 189, 5-((S)-3-(3-(((R)-4-Ethyl-1,1-dioxido-3,4-dihydro-2H-benzo[b][1,4,5]oxathiazepin-2-yl)methyl)-4-methylphenyl)-3-(1-ethyl-4-methyl-1H-benzo[d][1,2,3]triazol-5-yl)-2,2-dimethylpropanamido)-N,N-dimethylpyrimidine-2-carboxamide] the EC50 was 100 to 1000 nM.
